Assay [1] has as its system blood glucose. Kind of assay: OGTT and non-fasting/endpoint blood glucose in WD-fed apoE−/− mice. As to conditions: for Endpoint glucose levels, lower by: following a 6 h fast, after 12 weeks, vs WD+H2O; for Non-fasting blood glucose 30 min post-gavage vs pre-gavage, decreased by: routine oral gavage, glycine 0.67, leucine 0.33, DT-109/DT-110 1 mg/g; for Acute OGTT: blood glucose 30 min after glucose with treatment / Acute OGTT: blood glucose at later time points (60-120 min): week 10, overnight fast, oral; for Acute OGTT: blood glucose 30 min after glucose with treatment: glucose 2 mg/g plus glycine 0.67, leucine 0.33, DT-109 or DT-110 1 mg/g; for Acute OGTT: blood glucose at later time points (60-120 min): glucose 2 mg/g plus treatment. Type of assay: in vivo. The source says:
(§1) Eight-week-old male apolipoprotein E-deficient (apoE−/−) mice (B6.129P2-Apoetm1Unc/J, Stock No.: 002052) were obtained from Jackson Laboratories. Mice were fed Western diet (WD, 42% of calories from fat and 0.2% cholesterol by weight, Envigo TD.88137). After one week of WD feeding, blood was carefully collected from the facial vein to determine baseline plasma levels of total cholesterol (TC). […] All mice were maintained on a 12-hour light/dark cycle and had ad libitum access to food and water. Body weight and food intake were measured every one and three weeks, respectively
At week 10, oral glucose tolerance tests (OGTT) were performed following an overnight fast by administering 2 mg/g of glucose via oral gavage. […] To evaluate the chronic effects of the treatments, mice were administered with glucose alone. […] Then, mice were administered with glucose with (acute) or without (chronic) treatments and blood glucose levels were measured every 30 min for up to 120 min. To assess the effects of the treatments on non-fasting glucose levels, blood was collected from the tip of the tail before routine administration of treatments via oral gavage (pre-gavage) and 30 min afterwards (post-gavage).
OGTT were performed after 12 h fasting.

Assay [2] has as its system NASH-diet-induced HS. Type of assay: in vivo, mice. As to conditions: endpoint. As to the method: Frozen section processing was used for Oil Red O (ORO) staining. Formalin-fixed liver samples were cryoprotected in 20% sucrose at 4° C. overnight, blotted, then liquid nitrogen-snap frozen in O.C.T. Compound (Tissue-Tek, Cat #4583) and stored at −80° C. until ready for cryosectioning. Prior to sectioning, frozen blocks were brought up to about −20° C., then sectioned at 5 μm on a Cryotome SME (Thermo-Shandon, Cat #77200227). Slides were stored at −80° C. until stained. Prior to staining, liver slides were thawed to room temperature for 30 min. Slides were post-fixed in 10% Neutral Buffered Formalin for 20 min, rinsed in DDW, followed by rinsing in 60% Isopropanol before being placed in working ORO-isopropanol stain (Rowley Biochemical Inc., H-503-1B) for 5 min. Slides were then rinsed in 60% Isopropanol followed by three changes of DDW. Then, slides were nuclear counterstained in Harris Hematoxylin and mounted in Aqua-Mount (Lerner Laboratories, Cat #13800) aqueous mounting media.
Livers were rapidly removed from the euthanized mice, snap-frozen with liquid nitrogen, and kept at −80° C. Frozen liver samples (100 mg) were homogenized in PBS and centrifuged (14,000 RPM, 20 min). The supernatants were collected and analyzed for protein content using Bio-Rad Bradford assay. To assess liver lipid composition, lipids were extracted from the supernatants using hexane (≥99%, Sigma-Aldrich 32293) and isopropanol (≥99.5%, Fisher Scientific A428-4) at a 3:2 ratio (v:v), and the hexane phase was left for evaporation for 48 h. […] Liver diacylglycerols (DAG) were determined using ELISA Kit (Aviva Systems Biology, OKEH02607), according to the manufacturer's instructions. Hepatic TG, TC and DAG data were normalized to protein levels.
Mice fed CD and administered H2O served as control.

For assay [3], the system named is ABCG8. The assay is described as follows: Western blot of hepatic ABCG8 in WD-fed apoE−/− mice. In kind it is in vivo. As to conditions: normalized to β-Actin.
Text: as §1
The following primary antibodies were used: rabbit polyclonal anti-ABCG8 (Santa Cruz Biotechnology, sc-30111, working dilution 1:1000) and rabbit polyclonal anti-β-Actin (Cell signaling, 4967S, working dilution 1:3000). After TBST washing, membranes were incubated with secondary antibodies (LI-COR Biotechnology, donkey anti-rabbit IRDye 926-32213, 926-88073, working dilution 1:10000) for 1 hour at room temperature.

For assay [4], the system named is adipose tissue gene expression. The assay is described as follows: qPCR of inflammatory cytokines in epididymal and subcutaneous adipose tissue of WD-fed apoE−/− mice. In kind it is in vivo. As to conditions: endpoint.
Text: as §1
Total RNA from liver or adipose tissue samples was extracted using QIAGEN's RNeasy kits (QIAGEN). RNA was reverse-transcribed into cDNA with SuperScript III and random primers (Invitrogen). Specific transcript levels were assessed by a real-time PCR system (Bio-Rad) using IQ SYBR Green Supermix (Bio-Rad) and the ΔΔCt threshold cycle method of normalization. Gene expression levels were normalized to glyceraldehyde 3-phosphate dehydrogenase (GAPDH). Primer pairs used for qPCR were obtained from Integrated DNA Technologies and are listed below: […]
A general note: Quantitative PCR measures a nucleic acid by following its amplification.

Assay [5] relates to atherosclerotic lesions. The assay is described as follows: Analysis of atherosclerotic lesions (Oil Red O, en face aorta) in WD-fed apoE−/− mice. Type of assay: in vivo. Conditions: apoE−/− mice on WD, 12 weeks; vs WD+H2O.
Text: as §1
After collection of blood, the mice were perfused with 20 mL of saline solution through the heart, followed by 20 mL of 37% formalin. The mice were fixed with formalin and the whole aortic tree was dissected under a surgical microscope. Next, the aortic trees were stained with Oil Red O solution (0.2% Oil Red O (w/v) in 3.5:1 of methanol:1N NaOH) for 50 min, followed by 70% ethanol for 30 min. Aortic trees were then kept in DDW. The aortic trees were then cleared of adhering adipose and connective tissues, and longitudinally opened with Vannas scissors to expose the atherosclerotic lesions. Images of whole aortic trees were obtained using a digital camera, and the percentage of the plaque area stained by Oil Red O with respect to the total luminal surface area was quantified with ImageJ analysis software (http://imagej.nih.gov/ij/).

Non-standard residues stand in square brackets, D forms with d. No end group written: not given here.

In the case of `NCC(=O)O` [glycine, reference compound], in assay [1], the “Endpoint glucose levels, lower by” value came out at 41%; the “Non-fasting blood glucose 30 min post-gavage vs pre-gavage, decreased by” value was determined as 10%; the “Acute OGTT: blood glucose 30 min after glucose with treatment” value is “most significant effects”; the “Acute OGTT: blood glucose at later time points (60-120 min)” value (“Acute OGTT: blood glucose … (60-120 min)” for short) is given as “significantly decreased”. Moreover, the “HS by ORO and lipid quantification” value in assay [2] is reported as “significantly attenuated”. Besides, in assay [3], the “ABCG8 protein in liver (Western blot)” value is listed as “Overexpression”. In addition, in assay [4], the “MCP1 expression in EAT and SAT” value is “significantly suppressed”. In assay [5], the “Total atherosclerotic plaques (en face aortic lesions, Oil Red O), reduction by” value (shortened to “Total atherosclerotic plaques … reduction by”) is reported as 48%.

As to `CC(C)C[C@H](N)C(=O)O` [leucine], in assay [1], the “Non-fasting blood glucose 30 min post-gavage vs pre-gavage, decreased by” value is reported as “trends towards increased blood glucose”. In assay [2], the “HS by ORO and lipid quantification” value is “marked HS”. The “Total atherosclerotic plaques … reduction by” value in assay [5] is reported as “but not in mice treated with leucine”.

Gly-Gly-Leu [DT-109]: the “Glucose-lowering in OGTT and in non-fasting glucose” value in assay [1] (apoE−/− mice on WD, after 10 weeks, DT-109 1 mg/g/day vs equivalent leucine, glycine or H2O) is listed as “most potent glucose-lowering effects”. Moreover, in assay [1], the “Endpoint glucose levels, lower by” value came out at 30%; the “Non-fasting blood glucose 30 min post-gavage vs pre-gavage, decreased by” value is recorded as 21%; the “Acute OGTT: blood glucose 30 min after glucose with treatment” value is “most significant effects”; the “Acute OGTT: blood glucose … (60-120 min)” value was “significantly decreased”. Further, in assay [2], the “HS by ORO and lipid quantification” value is on record as “significantly attenuated”. In addition, the “Liver diacylglycerols (DAG)” value in assay [2] (0.5 mg/g/day DT-109) was “significantly reduced”. The “ABCG8 protein in liver (Western blot)” value in assay [3] is “Overexpression”. Besides, in assay [4], the “MCP1 expression in EAT and SAT” value is on record as “significantly suppressed”. For the same molecule, the “Total atherosclerotic plaques … reduction by” value in assay [5] was 62%.

Regarding Gly-Gly-[dL] [DT-110], in assay [1], the “Non-fasting blood glucose 30 min post-gavage vs pre-gavage, decreased by” value stood at 13% and the “Acute OGTT: blood glucose … (60-120 min)” value was “significantly decreased”. Further, the “ABCG8 protein in liver (Western blot)” value in assay [3] is “Overexpression”. Also, in assay [4], the “MCP1 expression in EAT and SAT” value is “significantly suppressed”; the “TNFα expression in EAT” value was “most significant effects”. In assay [5], the “Total atherosclerotic plaques … reduction by” value stood at 49%.

(Values after patent US20230181673A1, “TRI-PEPTIDES AND TREATMENT OF METABOLIC, CARDIOVASCULAR AND INFLAMMATORY DISORDERS” (Diapin Therapeutics, LLC, priority 2018, published 2023).)
